Source: patent US20050130989A1, “N-arylheteroaromatic products compositions containing them and use thereof” (Aventis Pharma S. A., priority 2003, published 2005)

Columns and labels:
[1] = test system: HDMEC cells (Human Dermal Microvascular Endothelial Cells); assay: Detachment of endothelial cells (test for determining the inhibition of vascularization); type: cell-based; conditions: two hours of treatment, calcein labeling, relative to untreated control
From the text: A test for determining the detachment of the endothelial cells was developed in order to select the products with regard to their “in vitro” activity. This test for determining the detachment of endothelial cells is characterized in that the endothelial cells, inoculated into plates whose bottom is covered with a binder preferably chosen from gelatin, fibronectin and vitronectin, after culturing, are supplemented with a medium containing the test compound, and the cells are then labeled with a fluorescent substance, the, cells which have become detached are removed by washing and the fluorescence of the remaining cells is counted in a fluorimeter.
This test consists in measuring the detachment of endothelial cells cultured on substrata based on a binder preferably chosen from fibronectin, vitronectin and gelatin. […] The fluorescence of the remaining cells is counted in a fluorimeter. […]
The evaluation of the detachment of the endothelial cells in vitro is determined in the following manner. […] The fluorescence of the cells that remain attached to the substratum of the well is counted using a fluorimeter, Spectrafluor Plus (Tecan excitation 485 nm, and emission 535 nm). The data are the mean of six different samples and are expressed as the percentage of the control (untreated cells). […]

HCT116 cells = assay: Inhibition of proliferation of the human colon tumor line HCT116 ([14C]-thymidine incorporation); type: cell-based; conditions: Homo sapiens, HCT-116, 48 h, 48 hours at 37° C., read-out: Inhibition of HCT116 proliferation IC 50 (μm)
Summary of the method: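 HCT116 cells (5000/well) in DMEM with 10% fetal calf serum incubated 48 h at 37° C with [14C]-thymidine (0.1 μCi/well) and compound up to 10 μm (DMSO ≤0.5%). Incorporated radioactivity counted; IC50 is concentration cutting radioactivity by 50% versus untreated control.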

tubulin = target: T1, tubulin (Sus scrofa, UniProt P02550+P02554); assay: Evaluation of the inhibition of tubulin polymerization (turbidimetry); type: biochemical, pig; conditions: tubulin 10 μm (1 mg/ml), 37° C., turbidity at 350 nm; concentration that inhibits the rate of polymerization by 50%; read-out: Inhibition of tubulin polymerization IC 50 (μm)
T1 construct: Tubulin is purified from pig brain according to published methods; from tissue; host or cells: pig brain
Summary of the method: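 Pig brain tubulin (>95% pure), 10 μm in MES pH 6.8/30% glycerol buffer plus 1 mM GTP and 6 mM MgCl2, with compound at 0.5–10 μm added before polymerization. Polymerization triggered by shift from 6° C to 37° C, followed by turbidity at 350 nm; IC50 is 50% inhibition of polymerization rate.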

T1 sequence (P02550 whole entry): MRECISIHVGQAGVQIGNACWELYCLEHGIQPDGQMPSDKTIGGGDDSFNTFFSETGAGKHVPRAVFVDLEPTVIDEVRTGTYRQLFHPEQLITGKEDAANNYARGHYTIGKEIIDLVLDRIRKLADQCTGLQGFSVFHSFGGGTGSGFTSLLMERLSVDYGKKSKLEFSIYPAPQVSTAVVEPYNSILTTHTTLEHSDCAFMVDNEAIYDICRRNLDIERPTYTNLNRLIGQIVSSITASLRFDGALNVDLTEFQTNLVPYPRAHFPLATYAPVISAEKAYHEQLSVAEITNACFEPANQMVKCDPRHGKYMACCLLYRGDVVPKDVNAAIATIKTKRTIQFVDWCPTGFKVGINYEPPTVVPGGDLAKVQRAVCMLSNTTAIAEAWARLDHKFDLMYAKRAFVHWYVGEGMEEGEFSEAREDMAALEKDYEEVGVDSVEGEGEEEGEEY
T1 sequence (P02554 whole entry): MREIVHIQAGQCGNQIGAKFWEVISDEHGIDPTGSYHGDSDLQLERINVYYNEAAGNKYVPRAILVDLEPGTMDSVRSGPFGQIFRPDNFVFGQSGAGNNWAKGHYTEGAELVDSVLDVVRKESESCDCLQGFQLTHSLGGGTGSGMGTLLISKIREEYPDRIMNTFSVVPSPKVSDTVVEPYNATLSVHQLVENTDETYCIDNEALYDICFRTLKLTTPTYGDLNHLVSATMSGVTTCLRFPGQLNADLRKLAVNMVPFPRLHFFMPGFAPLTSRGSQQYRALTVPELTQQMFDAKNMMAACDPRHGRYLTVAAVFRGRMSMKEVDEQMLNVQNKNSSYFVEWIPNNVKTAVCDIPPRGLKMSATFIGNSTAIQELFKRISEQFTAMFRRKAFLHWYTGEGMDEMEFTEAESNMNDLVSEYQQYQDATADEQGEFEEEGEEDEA

SMILES | Percentage detachment of HDMEC at 1 μm [1] | IC50 (HCT116 cells) | IC50 (tubulin) | melting point
Cc1cc(C(=O)N2CCN(c3cccc(Cl)c3)CC2)n(-c2ccccc2)n1 [Example 1, [4-(3-Chlorophenyl)piperazin-1-yl](5-methyl-2-phenyl-2H-pyrazol-3-yl)methanone] | 22% | 0.002 µM | 0.6 µM | 
Cc1cc(C(=O)N2CCN(c3ccc(C)c(C)c3)CC2)n(-c2ccccc2)n1 [Example 2, [4-(3,4-Dimethylphenyl)piperazin-1-yl](5-methyl-2-phenyl-2H-pyrazol-3-yl)methanone] | 16% | 0.16 µM | 0.6 µM | 
Cc1cc(C(=O)N2CCN(c3nccc4ccccc34)CC2)n(-c2ccccc2)n1.Cl [Example E15, [4-(Isoquinolin-1-yl)piperazin-1-yl](5-methyl-2-phenyl-2H-pyrazol-3-yl)-methanone hydrochloride] |  | 0.239 µM | 14 µM | 128 °C
Cc1cc(C(=O)N2CCN(c3cnccn3)CC2)n(-c2ccccc2)n1 [Example E19, (5-Methyl-2-phenyl-2H-pyrazol-3-yl)(2,3,5,6-tetrahydro-[1,2′]bipyrazinyl-4-yl)-methanone] |  | 0.04 µM | 6 µM | 129 °C
Cc1cc(C(=O)N2CCN(c3cccc(C(N)=O)c3)CC2)n(-c2ccccc2)n1 [Example E23, 3-[4-(5-Methyl-2-phenyl-2H-pyrazole-3-carbonyl)piperazin-1-yl]benzamide] |  | 0.01 µM | 0.32 µM | 186 °C
Cc1cc(C(=O)N2CCN(c3cncc4ccccc34)CC2)n(-c2ccccc2)n1 [Example E41] |  | 0.0894 µM | 4.5 µM | 166 °C
Cc1cc(C(=O)N2CCN(c3cccc(Cl)c3)CC2)n(-c2cccnc2)n1 [Example E52, [4-(3-Chlorophenyl)piperazin-1-yl][5-methyl-2-(pyrid-3-yl)-2H-pyrazol-3-yl]methanone] |  | 0.0102 µM | 1.41 µM | 124 °C
COc1cc(OC)cc(N2CCN(C(=O)c3cc(C)nn3-c3cccnc3)CC2)c1 [Example E53, [4-(3,5-Dimethoxyphenyl)piperazin-1-yl][5-methyl-2-(pyrid-3-yl)-2H-pyrazol-3-yl]methanone] |  | 0.0111 µM | 0.62 µM | 60 °C
Cc1cc(C(=O)N2CCN(c3cccnc3)CC2)n(-c2cccc(F)c2)n1 [Example E58, [2-(3-Fluorophenyl)-5-methyl-2H-pyrazol-3-yl](4-pyrid-3-ylpiperazin-1-yl)methanone] |  | 0.0411 µM | 1 µM | 132 °C
Cc1cc(C)cc(N2CCN(C(=O)c3cc(C)nn3-c3ccccc3)CC2)c1 [Example E63, [4-(3,5-Dimethylphenyl)piperazin-1-yl](5-methyl-2-phenyl-2H-pyrazol-3-yl)methanone] |  | 0.0022 µM | 0.6 µM | 109 °C
COc1cc(OC)cc(N2CCN(C(=O)c3cc(C(C)C)nn3-c3ccccc3)CC2)c1 [Example E71, [4-(3,5-Dimethoxyphenyl)piperazin-1-yl](5-isopropyl-2-phenyl-2H-pyrazol-3-yl)methanone] |  | 0.2 µM | 3.74 µM | 116 °C
CC(=O)c1cccc(N2CCN(C(=O)c3cc(C)nn3-c3ccccc3)CC2)c1 [Example E107, 1-{3-[4-(5-Methyl-2-phenyl-2H-pyrazole-3-carbonyl)piperazin-1-yl]phenyl}ethanone] |  | 0.0104 µM | 1.4 µM | 134 °C
CNC(=O)c1cccc(N2CCN(C(=O)c3cc(C)nn3-c3ccccc3)CC2)c1 [Example E116, N-Methyl-3-[4-(5-methyl-2-phenyl-2H-pyrazole-3-carbonyl)piperazin-1-yl]-benzamide] |  | 0.0113 µM | 2.07 µM | 180 °C
COc1cc(OC)cc(N2CCN(C(=O)c3cc(C(F)(F)F)nn3-c3ccccc3)CC2)c1 [Example E117, [4-(3,5-Dimethoxyphenyl)piperazin-1-yl](2-phenyl-5-trifluoromethyl-2H-pyrazol-3-yl)methanone] |  | 0.0284 µM | 7.9 µM | 84 °C
O=C(c1cc(C(F)(F)F)nn1-c1ccccc1)N1CCN(c2cccc(Cl)c2)CC1 [Example E118, [4-(3-Chlorophenyl)piperazin-1-yl](2-phenyl-5-trifluoromethyl-2H-pyrazol-3-yl)-methanone] |  | 0.403 µM | 2.3 µM | 160 °C
NC(=O)c1cccc(N2CCN(C(=O)c3cc(C(F)(F)F)nn3-c3ccccc3)CC2)c1 [Example E119, 3-[4-(2-Phenyl-5-trifluoromethyl-2H-pyrazole-3-carbonyl)piperazin-1-yl]benzamide] |  | 0.0103 µM | 1.2 µM | 160 °C
